The source of these data is the METLIN SMRT retention time set (Domingo-Almenara et al. 2019).

Molecules are shown by their SMILES.

The nature of the data set: gradient 5% acetonitrile 3 min, to 50% in 2 min, to 85% in 15 min, held 3 min, 100 µL/min. The following applies: column: Zorbax Extend-C18 2.1 x 50 mm; eluents: water / acetonitrile, 0.1% formic acid. In a few lines:
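Mixtures of ~100 pure standards were chromatographed on a Zorbax Extend-C18 column (2.1 × 50 mm, 1.8 μm) at 100 μL/min using water and acetonitrile, each with 0.1% formic acid. Detection used a quadrupole time-of-flight mass spectrometer in positive and negative ionization mode, and data collection spanned 3 months. Retention time was obtained from adduct peaks picked computationally and each checked manually.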
Consider `CCc1nnc(-c2ccc3ccn(CC(=O)NCCc4ccc(OC)c(OC)c4)c3c2)o1`, for which the RP-LC retention time came to 760 s.

For the molecule `Cc1nc(-c2ccccc2)c(-c2ccncc2)o1`, the RP-LC retention time worked out at 855 s. Regarding `CCNC(=O)Cn1c(=O)c2cnc(-c3ccccc3)nc2n(CC)c1=O`, the RP-LC retention time was 802 s.

Molecule `CCC(C)NC(=O)NC1CCN(C2=NS(=O)(=O)C(c3cccc(Cl)c3)=C2C)CC1` (stereo unspecified) showed an RP-LC retention time of 814 s. In turn, `CC(=O)NCc1nc(-c2cccc(-c3csc(C)n3)c2)no1` showed an RP-LC retention time of 704 s. For the molecule `CCOc1ccc(-c2nc(-c3ccc4nnn(CC)c4c3)no2)cc1`, the RP-LC retention time was 1140 s.

`Cc1ccc([N+](=O)[O-])cc1NC(=O)Nc1ccc(S(N)(=O)=O)cc1`: the RP-LC retention time was determined as 786 s. Next, `Cc1ccn2cc(-c3ccc(NC(=O)Nc4ccc(F)cc4)cc3)nc2n1`: 654 s; `NS(=O)(=O)c1ccc(NC(=O)NC2CC(=O)N(c3ccc(Cl)cc3)C2)cc1` (stereo unspecified): 657 s. `CCOc1ccc(-c2nc(Cc3noc(-c4ccncc4)n3)c(C)o2)cc1` registered an RP-LC retention time of 1010 s. Turning to `Cc1ccc(N2C(=O)C3N=NN(Cc4nc(-c5ccccc5Cl)no4)C3C2=O)cc1` (stereo unspecified), the RP-LC retention time came out at 996 s. On to `O=C(Cn1c(=O)oc2ccccc21)NCC1CCN(C(=O)c2cc3ccccc3o2)CC1`, for which the RP-LC retention time came out at 738 s.

`CN1CCC(N2CCN(C(=O)C3CCc4sc(C(=O)N5CCCC5)cc4C3)CC2)CC1` (stereo unspecified): the RP-LC retention time is 558 s. Turning to `CC(C)(C)c1ccc(-c2cc(C(=O)O)c3ccc(Br)cc3n2)cc1`, the RP-LC retention time amounted to 1400 s. Next, `CCn1cnc(S(=O)(=O)N2CCC(C(=O)NCc3ccc(C)cc3)CC2)c1`: 797 s. In the case of `CCc1onc(C)c1C1CCCN1C(=O)Nc1ccc(C(=O)OC)cc1` (stereo unspecified), the RP-LC retention time was determined as 806 s. Then `O=C(NCC1CCCO1)c1ccc2c(c1)NC(=O)C1CCC(=O)N21` (stereo unspecified), with 598 s; and `CNS(=O)(=O)c1cc(C(=O)Nc2cc(C)on2)oc1C`, with 643 s. Molecule `O=c1c2ccccc2c(-c2nc(-c3ccncc3)no2)cn1-c1ccc(F)cc1` displayed an RP-LC retention time of 1080 s. For `Cc1cc(S(=O)(=O)N2CCC3(CC2)NCCCN=C3NC2CCCC2)ccc1F`, the RP-LC retention time was 768 s.

`CCC(C)n1c(=O)c2ccccc2n(Cc2nc(-c3ccccc3Cl)no2)c1=O` (stereo unspecified) had an RP-LC retention time of 1170 s. Then `COc1ccc(-c2c(NC(=O)c3cccs3)n(C)c3ccccc3c2=O)cc1`, with 668 s; and `COc1cccc(-n2c(=O)c3sccc3n(Cc3nc(-c4ccc(OC(C)C)cc4)no3)c2=O)c1`, with 1080 s; and `CCOc1ccccc1C(=O)N(CC)c1nc(-c2ccc(C)cc2)cs1`, with 1420 s.

The molecule `CN1CCC(N2CCN(S(=O)(=O)c3ccccc3F)CC2)C1=O` (stereo unspecified) gave an RP-LC retention time of 545 s. For `CS(=O)(=O)Nc1ccc(CC(=O)NCC(F)(F)F)cc1`, the RP-LC retention time is 623 s. Molecule `CCCCOC(=O)c1cccnc1` showed an RP-LC retention time of 874 s.

The molecule `CCOC(=O)Cn1c(C2CC(=O)N(c3cccc(Cl)c3)C2)nc2ccccc21` (stereo unspecified) registered an RP-LC retention time of 872 s. In the case of `CN(C)c1ncncc1N1CCC(C(=O)N2CCOCC2)CC1`, the RP-LC retention time was 567 s.

In the case of `COC(=O)c1ccc2c(=O)n(Cc3ccc(F)cc3)c(N3CCCCC3)nc2c1`, the RP-LC retention time amounted to 1210 s.

On to `Cc1sc2ccn(CC(C)C)c(=O)c2c1C(=O)NCCN1CCN(C)CC1`, for which the RP-LC retention time was found to be 574 s. In turn, `CCCN(CC1CCOC1)C(=O)NCc1ccc(F)cc1` (stereo unspecified) had an RP-LC retention time of 758 s. Consider `Cc1nc2cc(-c3noc(-c4ccc(Cl)cc4Cl)n3)ccc2o1`, for which the RP-LC retention time was found to be 1250 s.

As to `COC[C@@H]1CN(S(=O)(=O)c2cccc(C)c2)C[C@H]1c1ccccn1`, the RP-LC retention time was found to be 651 s. Consider `O=C(NC1CCCCCC1)C1CCN(C(=O)c2ncn3c2COC(c2ccc(Cl)cc2)C3)CC1` (stereo unspecified), for which the RP-LC retention time is 900 s. Then `O=P(OC1=CCCCC1)(c1ccccc1)c1ccccc1`, with 1030 s; and `CCOc1ccccc1CNC(=O)C1CCN(C(=O)C2Sc3ccccc3NC2=O)CC1` (stereo unspecified), with 779 s; and `Cc1[nH]c2ccccc2c1CC(=O)NCCc1c[nH]c2ccccc12`, with 826 s. On to `CCOCCCNC(=O)C1CCCN(c2nnc(C)c3c(C)n(-c4ccc(OC)cc4)nc23)C1` (stereo unspecified), for which the RP-LC retention time was determined as 665 s. With `CCOc1ccc2nc(C(=O)NC(C)C)cn2n1`, the RP-LC retention time worked out at 731 s. `CCOc1ccccc1N1CCN(CC(O)c2ccc3c(c2)OCO3)CC1` (stereo unspecified) returned an RP-LC retention time of 664 s. Then `Cc1ccc(S(=O)(=O)Nc2ccc(-c3cn4cccnc4n3)cc2)cc1[N+](=O)[O-]`, with 713 s; and `CCc1noc(-c2cnc3nc(C)ccc3c2Nc2ccccc2OC)n1`, with 629 s; and `COc1cccc(-c2cc(C(=O)N3CCC(NC(=O)c4cccc(Cl)c4)CC3)[nH]n2)c1`, with 740 s.

`O=C(C1CCN(c2ncnc3c2oc2ccccc23)CC1)N1CCCC1` returned an RP-LC retention time of 654 s. `COc1ccc(-c2cn3c(CC(=O)Nc4ccc(Br)c(C)c4)csc3n2)cc1` had an RP-LC retention time of 914 s. Then `CCc1nn2c(CNS(=O)(=O)c3ccc(Cl)cc3C)c(-c3ccccc3)nc2s1`, with 1050 s; and `Cn1ncc2c(Nc3cccc([N+](=O)[O-])c3)ncnc21`, with 683 s. Next, `CC1=NS(=O)(=O)N(C)C=C1C(=O)OCc1ccc(Cl)cc1`: 978 s; `CN1CCN(C(=O)O[C@H]2c3nccnc3C(=O)N2c2ccc(Cl)cn2)CC1`: 660 s; `COc1ccc(OC)c(NC(=O)N2CCC(CN3CCC(C)CC3)CC2)c1`: 626 s. As for `COc1ccc(C2CC(=O)N(c3ccccc3)C(=O)C2)cc1`, the RP-LC retention time came to 842 s. `Cc1ccc(Sc2nccnc2N2CCC(C(=O)N3CCN(c4cccc(C)c4)CC3)CC2)cc1` had an RP-LC retention time of 1310 s. As for `Cc1ccc(NC(=O)C2(C)CCCCC(=O)N2)cc1` (stereo unspecified), the RP-LC retention time is 696 s. Regarding `Cc1cccc(-c2noc(Cc3nnc(-c4cccc(Br)c4)o3)n2)c1`, the RP-LC retention time came to 1150 s. For the molecule `Cc1cn2c(=O)c(S(=O)(=O)N3CCN(c4ccccn4)CC3)c(C)nc2s1`, the RP-LC retention time came to 601 s. For `CCC(C)NC(=O)CSc1ccc(-n2nccc2-c2ccc(OC)cc2)nn1` (stereo unspecified), the RP-LC retention time came out at 989 s.

`CC1CCCCN1CCN(CCC(=O)N1CCNCC1)C(=O)c1ccc(C(F)(F)F)cc1` (stereo unspecified) registered an RP-LC retention time of 569 s. In turn, `O=C(O)Cn1ncc2ccccc2c1=O` yielded an RP-LC retention time of 572 s. With `COc1ccc(-n2cc(C(=O)N3CCC(C(N)=O)CC3)nn2)cc1`, the RP-LC retention time turned out to be 612 s. The molecule `CCCn1cc(S(=O)(=O)CC(=O)Nc2ccc(C(=O)OCC)cc2)c2ccccc21` registered an RP-LC retention time of 890 s. In turn, `Cc1cc(NC(=O)C2CCN(C(=O)c3ccco3)CC2)no1` came in with an RP-LC retention time of 630 s. Next, `CN1CC(=O)N(CC(=O)Nc2ccc(Cl)c(C(F)(F)F)c2)c2ccccc2C1=O`: 826 s; `O=C(Nc1ccc2c(c1)CCCN2C(=O)c1ccco1)c1ccccc1C(F)(F)F`: 792 s. For the molecule `Cc1nc(-c2cc(S(=O)(=O)NCC(=O)N3CCN(c4cccc(Cl)c4)CC3)c(C)s2)no1`, the RP-LC retention time worked out at 829 s. `Cc1cc(C)c2c(N3CCCC3)nc(C(=O)N3CCN(c4ccccn4)CC3)nc2n1` registered an RP-LC retention time of 1080 s. `CCCN1C(=O)CCc2cc(NS(=O)(=O)c3ccc(C(F)(F)F)cc3)ccc21` had an RP-LC retention time of 914 s. Then `CCN(CC)S(=O)(=O)c1cccc(-c2nnc(-c3ccc(Cl)cc3)o2)c1`, with 1140 s; and `CCNC(=O)N1CC(n2cc(C(=O)NCCOC)nn2)C1`, with 1260 s; and `COc1ccc(NC(=O)Cn2ccc3c(=O)n(C)c(=O)n(C)c32)c(OC)c1`, with 665 s. Molecule `O=C(Cn1c(=O)cc(C(=O)N2CCCCC2)c2ccccc21)NC1CCCCC1` had an RP-LC retention time of 753 s. On to `CCc1nc(-c2ccc(-c3noc(CN4C(=O)COc5ccc(Cl)cc54)n3)cc2)cs1`, for which the RP-LC retention time was 1270 s. Then `CCCCN1C(=O)C(C)(C(=O)N2CCN(c3cccc(C)c3C)CC2)Oc2cccnc21` (stereo unspecified), with 1380 s; and `CN(C)S(=O)(=O)c1ccc(C(=O)N2CCC(c3nnc(C(F)(F)F)o3)CC2)cc1`, with 747 s; and `CCOCCCNC(=O)c1nc(Nc2ccc(C)cc2)c2ccccc2n1`, with 746 s. Turning to `Cc1ccc(-c2nc(-c3ccc(-n4ccnc4)nc3)no2)cc1C`, the RP-LC retention time is 857 s. `NNC(=O)CSc1nc2scc(-c3ccccc3)c2c(=O)n1-c1ccccc1` registered an RP-LC retention time of 838 s. Then `COc1cccc(CNC(=O)N2CCC(N3CCN(Cc4ccccc4)C(=O)C3=O)CC2)c1`, with 698 s. The molecule `O=C(Cn1nc2n(c1=O)CCCC2)Nc1cccc(Cl)c1` came in with an RP-LC retention time of 662 s. Molecule `CC1(C(=O)NCc2ccc(Cl)cc2)Oc2cccnc2NC1=O` (stereo unspecified) yielded an RP-LC retention time of 725 s.

`CN(C1CCc2nn(CC3CC3)c(=O)n2CC1)S(=O)(=O)c1ccccc1Cl` (stereo unspecified): the RP-LC retention time turned out to be 796 s.
